In one experiment the target is PI3Kalpha (Homo sapiens, UniProt P42336). Description: Biochemical PI3Kalpha assay (neomycin SPA, lipid phosphorylation). The conditions noted are these: human recombinant GST-PI3K. The protocol: (§1) The efficacy of the compounds according to the invention in the inhibition of PI3K-induced lipid phosphorylation can be investigated in the following binding assay. The assay combines scintillation proximity assay (SPA) technology (Amersham) with the ability of neomycin (a polycationic antibiotic) to bind phospholipids with high affinity and specificity. […] The coating of SPA beads with neomycin allows the detection of phosphorylated lipid substrates after incubation with recombinant PI3K and radioactive ATP in the same well by trapping the radioactive phospholipids by the SPA beads owing to their specific binding to neomycin. […] After incubation at room temperature for 120 minutes with gentle stirring, the reaction was stopped by addition of 200 μl of a solution comprising 250 μg of neomycin-coated PVT-SPA beads, ATP 60 mM and EDTA 6.2 mM in PBS. The assay is incubated at room temperature for a further 60 minutes with gentle stirring in order to enable binding of the phospholipids to the neomycin-SPA beads. After precipitation of the neomycin-coated PVT-SPA beads over 5 minutes at 1500×g, radioactive Ptdlns(3)P is quantified by scintillation counting in a Wallac Micro-Beta™ plate counter.
Chain of PI3Kalpha (P42336 whole entry): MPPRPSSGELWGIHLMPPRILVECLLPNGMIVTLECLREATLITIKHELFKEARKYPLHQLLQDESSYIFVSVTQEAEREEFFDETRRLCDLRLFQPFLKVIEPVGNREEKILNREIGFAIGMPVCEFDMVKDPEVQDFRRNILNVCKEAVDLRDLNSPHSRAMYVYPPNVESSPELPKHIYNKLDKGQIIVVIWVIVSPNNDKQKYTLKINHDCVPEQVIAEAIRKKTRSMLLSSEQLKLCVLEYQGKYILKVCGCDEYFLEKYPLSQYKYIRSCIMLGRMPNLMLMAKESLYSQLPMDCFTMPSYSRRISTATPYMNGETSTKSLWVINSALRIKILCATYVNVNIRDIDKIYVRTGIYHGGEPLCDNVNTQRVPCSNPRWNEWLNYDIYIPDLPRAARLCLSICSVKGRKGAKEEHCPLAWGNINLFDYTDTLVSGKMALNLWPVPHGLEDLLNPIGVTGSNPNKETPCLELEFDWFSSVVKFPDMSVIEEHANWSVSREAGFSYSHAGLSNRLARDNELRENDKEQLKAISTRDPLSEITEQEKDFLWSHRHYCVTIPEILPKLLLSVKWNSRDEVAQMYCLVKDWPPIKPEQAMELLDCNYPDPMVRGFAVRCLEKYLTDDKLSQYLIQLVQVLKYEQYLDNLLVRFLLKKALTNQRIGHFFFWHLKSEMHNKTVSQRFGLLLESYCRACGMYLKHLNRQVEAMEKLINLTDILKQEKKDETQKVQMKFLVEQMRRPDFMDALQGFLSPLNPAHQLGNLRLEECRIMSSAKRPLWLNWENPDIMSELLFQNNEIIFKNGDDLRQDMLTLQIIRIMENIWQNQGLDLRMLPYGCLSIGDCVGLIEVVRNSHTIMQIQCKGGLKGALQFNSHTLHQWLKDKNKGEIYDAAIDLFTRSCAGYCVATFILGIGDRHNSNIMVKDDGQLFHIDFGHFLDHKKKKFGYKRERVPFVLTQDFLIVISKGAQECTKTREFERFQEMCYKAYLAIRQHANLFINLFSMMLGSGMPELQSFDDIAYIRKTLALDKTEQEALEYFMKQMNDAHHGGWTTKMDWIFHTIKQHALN
Chain of PI3Kalpha (P27986 whole entry partner): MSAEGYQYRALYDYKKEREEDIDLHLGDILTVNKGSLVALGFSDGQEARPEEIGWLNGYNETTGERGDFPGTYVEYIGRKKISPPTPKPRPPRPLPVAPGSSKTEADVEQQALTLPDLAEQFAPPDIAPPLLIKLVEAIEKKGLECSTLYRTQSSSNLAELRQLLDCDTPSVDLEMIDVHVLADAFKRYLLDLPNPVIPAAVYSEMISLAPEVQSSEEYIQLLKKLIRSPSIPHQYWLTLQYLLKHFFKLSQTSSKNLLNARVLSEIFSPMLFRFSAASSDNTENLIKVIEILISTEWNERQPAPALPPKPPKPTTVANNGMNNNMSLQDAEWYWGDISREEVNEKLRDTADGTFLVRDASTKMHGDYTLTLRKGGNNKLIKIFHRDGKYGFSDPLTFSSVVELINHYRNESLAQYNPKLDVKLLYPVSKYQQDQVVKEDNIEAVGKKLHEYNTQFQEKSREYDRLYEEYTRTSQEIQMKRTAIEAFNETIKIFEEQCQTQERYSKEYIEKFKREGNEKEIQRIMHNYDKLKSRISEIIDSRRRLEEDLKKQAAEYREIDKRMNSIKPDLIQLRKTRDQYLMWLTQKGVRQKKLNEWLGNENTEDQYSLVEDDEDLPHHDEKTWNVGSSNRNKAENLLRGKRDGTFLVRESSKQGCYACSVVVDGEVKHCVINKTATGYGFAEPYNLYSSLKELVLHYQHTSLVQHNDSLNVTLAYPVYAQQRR

For the next experiment, the target named is PI3Kbeta (Homo sapiens, UniProt P42338). Description: Biochemical PI3Kbeta assay (neomycin SPA, lipid phosphorylation). The conditions noted are these: human recombinant GST-PI3K. The protocol:
as §1

Experiment [1] concerns the target recombinant PI3Kalpha (shortened form of the catalytic subunit) (Homo sapiens, UniProt P42336). Description: BIACORE PI3K binding assay (SPR). The conditions noted are these: 25° C. The method, then:
SPR measurements of the binding affinities and binding kinetics on PI3Kalpha surfaces with the aid of Biacore systems. The experiments are carried out on a Biacore S51 “Compound Characterization” or a Biacore T100 instrument utilising the default application “Kinetics/Affinity” Experimental conditions: recombinant PI3Kalpha (shortened form of the catalytic subunit, missing N terminal from about 100 to 150 aa, Mw about 110 kDa, prepared by Proteros Biostructures GmbH) is immobilised on Biacore CM5 chips (25° C., flow rate: 10 μl/min, utilising amine coupling at pH 7.40—Biacore Standard protocol). PI3Kalpha is employed in concentrations between 10 and 25 μg/ml. Depending on the duration of the injection time, immobilisation levels from 1700 to 11000 RU are achieved. The substances to be measured are added in the form of a titration series. The substance concentration is doubled for each subsequent injection. 10 different substance concentrations which cover a 500-fold dilution range are usually injected. […] Kinetic titration experiments are carried out at 25° C. with a flow rate of 30 μl/min, the sample contact time is 180 s, and the dissociation time is 240 s in a running buffer (20 mM HEPES pH7.40, 150 mM NaCl, 5 mM MgCl2, 1 mM DTT, 0.1 mM EDTA, 0.05% Tween 20) comprising 2% of DMSO. Buffer injections (as double references) identical to the sample injections are carried out in each case at the beginning of a continuous series. Solvent correction cycles (eight correction points, 1.4%-2.8% DMSO) are carried out at equal intervals. In order to condition the surface, at least five start-up cycles (buffer injections) are carried out. Data points are collected with a sample rate of 10 Hz. Surface regeneration is carried out after each measurement cycle, apart from after the solvent correction runs. For this purpose, two times 100 mM NaHCO3 pH 8.60 are injected for 30 sec. Data sets are processed and analysed using the Biacore S51 Evaluation software, version 1.2.1, or Biacore T100 Evaluation, version 2.0. Solvent-corrected and double-referenced association and dissociation phase data are adapted to a simple 1:1 interaction model with mass transport limitations.
On the technique in general: Surface plasmon resonance follows binding to a sensor surface in real time, without labels.

In experiment [2] the test system is PI3K-dependent phosphorylation of PKB at Serin 473 in PC3 cells. Description: Cellular PI3K assay (P-S473-PKB Luminex assay in PC3 cells). The class given is cell-based. The conditions noted are these: Homo sapiens, PC-3, 0.5 h; PC3 cells, 30 min, serum-free, P-S473-PKB; read-out: IC50 (cell). The method, then: The cellular assay for determination of the P-S473-PKB level is carried out as a Luminex assay in 96-well format in PC3 cells.
PC3 cells are sown out with 20,000 cells per well in 100 μl medium (45% […]/45% Ham's F12/10% FCS) and incubated on the following day for 30 min with a serial dilution of the test substance (7 concentrations) under serum-free conditions. The cells are subsequently lysed using 90 μl of lysis buffer (20 mM Tris/HCl pH 8.0, 150 mM NaCl, 1% NP40, 10% glycerol, 1% phosphatase inhibitor I, 1% phosphatase inhibitor II, 0.1% protease inhibitor cocktail III, 0.01% benzonase) per well, and the lysates are separated off from insoluble cell constituents by means of centrifugation through a 96-well filter plate (0.65 μm). The lysates are incubated overnight at 4° C. with shaking with Luminex beads to which an anti-total PKB antibody is coupled. The detection is carried out on the following day by addition of a P-S473-PKB antibody and a species-specific PE-labelled secondary antibody. The detection of P-S473-PKB is carried out by measurement in a Luminex100 instrument by determination of 100 events per cavity in a measurement time of 60 sec.

The target of the next experiment is DNA-PK protein complex (Homo sapiens, UniProt P78527). Description: Biochemical DNA-PK assay (FlashPlate). The method, then: The kinase assay is carried out in […] microtitre FlashPlates®, coated with streptavidin. […] The reaction is stopped by addition of 50 μl/well of 200 mM EDTA. After incubation for 30 minutes, the liquids are removed at room temperature. Each well is washed three times with 100 μl of 0.9% NaCl solution. Non-specific reaction (blank) is determined using a proprietary kinase inhibitor (10 μM). The radioactivity is measured by means of a Topcount. […] Todd Eary, J. G. Schiro, H. Huang, L. E. Burgess, E. A. Kesicki, and J. Halbrook.

Structures are written as SMILES.

The text below walks through data of US8802866B2, “Pyridinylimidazolone derivatives for the inhibition of PI3 kinases” (Merck Patent GmbH, priority 2009, dated 2014).

As usually defined, the IC50 is the concentration at which inhibition is half-maximal. Broadly, the Kd is the constant that tells how readily two partners part at equilibrium.

Chain of recombinant PI3Kalpha (shortened form of the catalytic subunit) (P42336 151-1068 limits assumed): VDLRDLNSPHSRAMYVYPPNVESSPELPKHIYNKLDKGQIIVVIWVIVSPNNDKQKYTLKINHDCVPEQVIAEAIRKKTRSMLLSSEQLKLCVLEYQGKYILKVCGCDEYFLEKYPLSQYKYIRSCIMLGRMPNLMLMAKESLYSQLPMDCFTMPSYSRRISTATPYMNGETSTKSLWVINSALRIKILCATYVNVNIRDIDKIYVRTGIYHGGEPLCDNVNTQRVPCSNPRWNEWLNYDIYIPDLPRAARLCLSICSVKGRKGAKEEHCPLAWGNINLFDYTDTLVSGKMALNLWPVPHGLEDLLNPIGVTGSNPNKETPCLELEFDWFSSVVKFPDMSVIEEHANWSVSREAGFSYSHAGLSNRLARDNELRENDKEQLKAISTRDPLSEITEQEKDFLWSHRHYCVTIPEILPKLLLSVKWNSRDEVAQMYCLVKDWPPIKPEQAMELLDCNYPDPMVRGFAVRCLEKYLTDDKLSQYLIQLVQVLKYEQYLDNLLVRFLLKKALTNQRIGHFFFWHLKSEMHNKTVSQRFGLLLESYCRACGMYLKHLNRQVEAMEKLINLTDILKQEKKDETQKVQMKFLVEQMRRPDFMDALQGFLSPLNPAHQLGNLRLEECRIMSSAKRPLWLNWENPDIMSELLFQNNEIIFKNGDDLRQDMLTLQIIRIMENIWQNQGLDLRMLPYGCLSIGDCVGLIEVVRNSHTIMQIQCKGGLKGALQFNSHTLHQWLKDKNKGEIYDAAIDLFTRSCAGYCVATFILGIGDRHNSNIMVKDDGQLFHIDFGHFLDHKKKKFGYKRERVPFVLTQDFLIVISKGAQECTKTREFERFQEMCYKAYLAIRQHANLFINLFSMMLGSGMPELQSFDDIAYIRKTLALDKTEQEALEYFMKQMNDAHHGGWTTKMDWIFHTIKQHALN
Chain of PI3Kbeta (P42338 whole entry): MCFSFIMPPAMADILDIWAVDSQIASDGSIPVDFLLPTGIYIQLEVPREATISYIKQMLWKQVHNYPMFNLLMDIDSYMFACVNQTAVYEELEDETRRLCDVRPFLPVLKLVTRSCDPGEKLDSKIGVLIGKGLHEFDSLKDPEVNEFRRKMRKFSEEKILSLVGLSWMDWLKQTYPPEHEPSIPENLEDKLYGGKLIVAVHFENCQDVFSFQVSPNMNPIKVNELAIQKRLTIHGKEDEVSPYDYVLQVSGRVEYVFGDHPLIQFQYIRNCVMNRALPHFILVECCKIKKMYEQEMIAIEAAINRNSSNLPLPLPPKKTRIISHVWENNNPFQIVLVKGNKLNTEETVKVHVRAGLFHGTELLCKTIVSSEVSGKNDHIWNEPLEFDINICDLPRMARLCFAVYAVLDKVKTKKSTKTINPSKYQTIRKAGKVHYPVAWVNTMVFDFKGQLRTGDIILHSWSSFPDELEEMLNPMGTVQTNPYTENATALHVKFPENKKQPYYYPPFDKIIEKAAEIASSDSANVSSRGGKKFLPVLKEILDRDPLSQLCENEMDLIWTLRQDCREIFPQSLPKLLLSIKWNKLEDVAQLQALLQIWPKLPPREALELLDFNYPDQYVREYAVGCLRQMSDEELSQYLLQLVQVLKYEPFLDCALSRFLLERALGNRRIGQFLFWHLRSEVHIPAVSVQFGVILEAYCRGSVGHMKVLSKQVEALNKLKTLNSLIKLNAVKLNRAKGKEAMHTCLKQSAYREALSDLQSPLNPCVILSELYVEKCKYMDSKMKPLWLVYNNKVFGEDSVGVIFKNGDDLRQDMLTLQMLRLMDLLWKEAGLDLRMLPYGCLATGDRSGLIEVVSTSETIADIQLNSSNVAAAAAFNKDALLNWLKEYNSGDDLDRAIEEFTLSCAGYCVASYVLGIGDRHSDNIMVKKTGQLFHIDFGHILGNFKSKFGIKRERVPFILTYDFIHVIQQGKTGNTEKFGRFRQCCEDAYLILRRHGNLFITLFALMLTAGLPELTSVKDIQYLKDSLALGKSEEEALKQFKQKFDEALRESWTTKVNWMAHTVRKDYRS
Chain of PI3Kbeta (P27986 whole entry partner): as the sequence (P27986 whole entry partner) above

For `Cn1cc(-c2cc(-c3cnc(N)c(C(F)(F)F)c3)ccn2)n(-c2ccc(N3CCNCC3)c(C(F)(F)F)c2)c1=O` [Example A56, 4-(6-Amino-5-trifluoromethyl-[3,4′]bipyridinyl-2′-yl)-1-methyl-3-(4-piperazin-1-yl-3-trifluoromethylphenyl)-1,3-dihydroimidazol-2-one], the half-maximal inhibitory concentration (IC50) (on PI3Kalpha; on PI3Kbeta; in experiment [2]; at DNA-PK protein complex) was 0.1 to 10 µM in each case. Also, the Kd in experiment [1] was 0.0001 to 0.1 µM.
Consider `Cn1cc(-c2cc(-c3ccc4[nH]ccc4c3)ccn2)n(-c2ccc(N3CCNCC3)c(C(F)(F)F)c2)c1=O` [Example A57, 4-[4-(1H-Indol-5-yl)pyridin-2-yl]-1-methyl-3-(4-piperazin-1-yl-3-trifluoromethyl-phenyl)-1,3-dihydroimidazol-2-one], for which the IC50 (on PI3Kalpha; on PI3Kbeta; in experiment [2]; on DNA-PK protein complex) was 0.1 to 10 µM throughout. Further, the Kd in experiment [1] was 0.1 to 10 µM.
On to `Cn1cc(-c2cc(-c3ccc(N)nc3)ccn2)n(-c2ccc(N3CCNCC3)c(C(F)(F)F)c2)c1=O` [Example A59, 4-(6-Amino-[3,4′]bipyridinyl-2′-yl)-1-methyl-3-(4-piperazin-1-yl-3-trifluoromethyl-phenyl)-1,3-dihydroimidazol-2-one], for which the IC50 at PI3Kalpha lay within 0.1 to 10 µM; on PI3Kbeta it was 0.1 to 10 µM; in experiment [2] it was 0.1 to 10 µM; against DNA-PK protein complex, 0.0001 to 0.1 µM. Also, in experiment [1], the equilibrium dissociation constant (Kd) lay in the range of 0.0001 to 0.1 µM.
On to `Cn1cc(-c2cc(-c3ccc(NS(C)(=O)=O)cc3)ccn2)n(-c2ccc(N3CCNCC3)c(C(F)(F)F)c2)c1=O` [Example A62, N-(4-{2-[1-Methyl-2-oxo-3-(4-piperazin-1-yl-3-trifluoromethylphenyl)-2,3-dihydro-1H-imidazol-4-yl]pyridin-4-yl}phenyl)methanesulfonamide], for which the IC50 at PI3Kalpha is more than 10 µM; at PI3Kbeta, more than 10 µM; in experiment [2], more than 10 µM; against DNA-PK protein complex, 0.0001 to 0.1 µM. Besides, the Kd in experiment [1] is more than 10 µM.
In the case of `Cn1cc(-c2cc(-c3cnc(N)c(C(F)(F)F)c3)ccn2)n(-c2cccc(C#N)c2)c1=O` [Example A64, 3-[5-(6-Amino-5-trifluoromethyl-[3,4′]bipyridinyl-2′-yl)-3-methyl-2-oxo-2,3-dihydroimidazol-1-yl]benzonitrile], the IC50 on PI3Kalpha lay within 0.1 to 10 µM; on PI3Kbeta, 0.1 to 10 µM; in experiment [2], 0.1 to 10 µM; against DNA-PK protein complex, 0.0001 to 0.1 µM. In experiment [1], the dissociation constant Kd was in the range of 0.0001 to 0.1 µM.
`Cn1cc(-c2cc(-c3cnc(N)c(C#N)c3)ccn2)n(-c2ccc(N3CCNCC3)c(C(F)(F)F)c2)c1=O` [Example A65, 6-Amino-2′-[1-methyl-2-oxo-3-(4-piperazin-1-yl-3-trifluoromethylphenyl)-2,3-dihydro-1H-imidazol-4-yl]-[3,4′]bipyridinyl-5-carbonitrile]: the IC50 on PI3Kalpha lay in the range of 0.1 to 10 µM; at PI3Kbeta, 0.1 to 10 µM; in experiment [2], 0.1 to 10 µM; at DNA-PK protein complex, 0.0001 to 0.1 µM. Besides, the equilibrium dissociation constant (Kd) in experiment [1] lay within 0.0001 to 0.1 µM.
On to `CCc1cccc(-n2c(-c3cc(-c4cnc5[nH]ccc5c4)ccn3)cn(C)c2=O)c1` [Example A66, 3-(3-Ethylphenyl)-1-methyl-4-[4-(1H-pyrrolo[2,3-b]pyridin-5-yl)pyridin-2-yl]-1,3-dihydroimidazol-2-one], for which the IC50 (on PI3Kalpha; on PI3Kbeta; in experiment [2]; on DNA-PK protein complex) was more than 10 µM throughout. The equilibrium dissociation constant (Kd) in experiment [1] is more than 10 µM.
Consider `Cn1cc(-c2cc(-c3cnc4[nH]ccc4c3)ccn2)n(-c2ccccc2C(F)(F)F)c1=O` [Example A67, 1-Methyl-4-[4-(1H-pyrrolo[2,3-b]pyridin-5-yl)pyridin-2-yl]-3-(2-trifluoromethylphenyl)-1,3-dihydroimidazol-2-one], for which the IC50 at PI3Kalpha lay in the range of 0.1 to 10 µM; at PI3Kbeta, 0.1 to 10 µM; in experiment [2] it was 0.1 to 10 µM; on DNA-PK protein complex, 0.0001 to 0.1 µM. Moreover, the Kd in experiment [1] lay within 0.1 to 10 µM.
As to `Cn1cc(-c2cc(-c3cnc4[nH]ccc4c3)ccn2)n(-c2ccccc2C#N)c1=O` [Example A69, 2-{3-Methyl-2-oxo-5-[4-(1H-pyrrolo[2,3-b]pyridin-5-yl)pyridin-2-yl]-2,3-dihydroimidazol-1-yl}benzonitrile], the half-inhibitory concentration (IC50) (at PI3Kalpha; on PI3Kbeta; in experiment [2]; at DNA-PK protein complex) was more than 10 µM each time. Moreover, the Kd in experiment [1] fell in the range of 0.1 to 10 µM.
For `Cn1cc(-c2cc(-c3cnc4[nH]ccc4c3)ccn2)n(-c2ccc(N3CCOCC3)c(C(F)(F)F)c2)c1=O` [Example A71, 1-Methyl-3-(4-morpholin-4-yl-3-trifluoromethylphenyl)-4-[4-(1H-pyrrolo[2,3-b]-pyridin-5-yl)pyridin-2-yl]-1,3-dihydroimidazol-2-one], the 50% inhibitory concentration (IC50) was 0.1 to 10 µM at PI3Kalpha, 0.1 to 10 µM on PI3Kbeta, 0.0001 to 0.1 µM in experiment [2] and 0.0001 to 0.1 µM against DNA-PK protein complex. Further, in experiment [1], the Kd was 0.0001 to 0.1 µM.
As to `CN1CCN(c2ccc(-n3c(-c4cc(-c5cnc6[nH]ccc6c5)ccn4)cn(C)c3=O)cc2C#N)CC1` [Example A83, 5-{3-Methyl-2-oxo-5-[4-(1H-pyrrolo[2,3-b]pyridin-5-yl)pyridin-2-yl]-2,3-dihydroimidazol-1-yl}-2-(4-methylpiperazin-1-yl)benzonitrile], the IC50 (at PI3Kalpha; on PI3Kbeta; in experiment [2]; on DNA-PK protein complex) was 0.1 to 10 µM throughout. For the same compound, the Kd in experiment [1] was in the range of 0.0001 to 0.1 µM.
Regarding `Cn1cc(-c2cc(-c3cnc(N)c(-c4ccccc4)c3)ccn2)n(-c2ccc(C(C)(C)C#N)cc2)c1=O` [Example A84, 2-{4-[5-(6-Amino-5-phenyl-[3,4′]bipyridinyl-2′-yl)-3-methyl-2-oxo-2,3-dihydroimidazol-1-yl]phenyl}-2-methylpropionitrile], the IC50 at PI3Kalpha lay in the range of 0.0001 to 0.1 µM; on PI3Kbeta, 0.1 to 10 µM; in experiment [2] it was 0.1 to 10 µM; at DNA-PK protein complex, 0.0001 to 0.1 µM. In addition, the Kd in experiment [1] is 0.0001 to 0.1 µM.
